What was measured:
Type in all cases: in vivo
Digitaria sanguinalis = test: Post-emergence herbicidal effect against DIGSA; settings: visual assessment after about 3 weeks, 100% = plants have died
Procedure: (§1) 1. Post-Emergence Herbicidal Effect and Crop Plant Compatibility
(§2) Seeds of monocotyledonous and dicotyledonous weed and crop plants are laid out in sandy loam soil in wood-fibre pots, covered with soil and cultivated in a greenhouse under good growth conditions. 2 to 3 weeks after sowing, the test plants are treated at the one-leaf stage. The compounds of the invention, formulated in the form of wettable powders (WP) or as emulsion concentrates (EC), are then sprayed onto the green parts of the plants as aqueous suspension or emulsion at a water application rate equating to 600 to 800 l/ha with addition of 0.2% wetting agent. After the test plants have been left to stand in the greenhouse under optimal growth conditions for about 3 weeks, the action of the preparations is assessed visually in comparison to untreated controls (herbicidal action in percent (%): 100% activity=the plants have died, 0% activity=like control plants).

Alopecurus myosuroides [1] = test: Post-emergence herbicidal effect against ALOMY; settings: visual assessment after about 3 weeks, 100% = plants have died
Procedure: as §1, §2

Hordeum murinum = test: Post-emergence herbicidal effect against HORMU; settings: 80 g/ha, visual assessment after about 3 weeks
Procedure: as §1, §2

Avena fatua [2] = test: Post-emergence herbicidal effect against AVEFA; settings: 80 g/ha, visual assessment after about 3 weeks, 100% = plants have died
Procedure: as §1, §2

Lolium rigidum [3] = test: Post-emergence herbicidal effect against LOLRI; settings: 80 g/ha, visual assessment after about 3 weeks
Procedure: as §1, §2

Echinochloa crus-galli [4] = test: Post-emergence herbicidal effect against ECHCG; settings: visual assessment after about 3 weeks
Procedure: as §1, §2

Setaria viridis = test: Post-emergence herbicidal effect against SETVI; settings: visual assessment after about 3 weeks
Procedure: as §1, §2

Alopecurus myosuroides [5] = test: Pre-emergence herbicidal effect against ALOMY; settings: 320 g/ha, scored visually after 3 weeks
Source text: (§3) 2. Pre-Emergence Herbicidal Effect and Crop Plant Compatibility
(§4) Seeds of monocotyledonous and dicotyledonous weed plants and crop plants are laid out in sandy loam soil in wood-fibre pots and covered with soil. The compounds of the invention, formulated in the form of wettable powders (WP) or as emulsion concentrates (EC), are then applied to the surface of the covering soil as aqueous suspension or emulsion at a water application rate equating to 600 to 800 L/ha with addition of 0.2% wetting agent.
(§5) After the treatment, the pots are placed in a greenhouse and kept under good growth conditions for the trial plants. The damage to the test plants is scored visually after a test period of 3 weeks by comparison with untreated controls (herbicidal activity in percent (%): 100% activity=the plants have died, 0% activity=like control plants).

Lolium rigidum [6] = test: Pre-emergence herbicidal effect against LOLRI; settings: scored visually after 3 weeks
Source text: as §3, §4, §5

Echinochloa crus-galli [7] = test: Pre-emergence herbicidal effect against ECHCG; settings: 320 g/ha, scored visually after 3 weeks
Source text: as §3, §4, §5

Avena fatua [8] = test: Pre-emergence herbicidal effect against AVEFA; settings: 320 g/ha, scored visually after 3 weeks
Source text: as §3, §4, §5

Row | SMILES | Post-emergence action against DIGSA (Digitaria sanguinalis; 20 g/ha) | Post-emergence action against DIGSA (Digitaria sanguinalis; 80 g/ha) | Post-emergence action against ALOMY (Alopecurus myosuroides [1]; 20 g/ha) | Post-emergence action against ALOMY (Alopecurus myosuroides [1]; 80 g/ha) | Post-emergence action against HORMU (Hordeum murinum) | Post-emergence action against AVEFA (Avena fatua [2]) | Post-emergence action against LOLRI (Lolium rigidum [3]) | Post-emergence action against ECHCG (Echinochloa crus-galli [4]; 80 g/ha) | Post-emergence action against SETVI (Setaria viridis; 20 g/ha) | Post-emergence action against SETVI (Setaria viridis; 80 g/ha) | Pre-emergence action against ALOMY (Alopecurus myosuroides [5]) | Pre-emergence action against LOLRI (Lolium rigidum [6]; 80 g/ha) | Pre-emergence action against LOLRI (Lolium rigidum [6]; 320 g/ha) | Pre-emergence action against ECHCG (Echinochloa crus-galli [7]) | Post-emergence action against ECHCG (Echinochloa crus-galli [4]; 20 g/ha) | Pre-emergence action against AVEFA (Avena fatua [8])
1 | COc1cc(C)cc(C)c1C1=C(O)C2(COC3(CCOCC3)OC2)NC1=O [Example 1-1] | 100% | 100% | 100% | 100% | 100% | 100% | 100% | 100% | 100% | 100% |  |  |  |  |  | 
2 | COc1cc(Cl)cc(C)c1C1=C(O)C2(COC3(CCOCC3)OC2)NC1=O [Example 1-4, 3-(4-chloro-2-methoxy-6-methylphenyl)-4-hydroxy-7,11,14-trioxa-1-azadispiro[4.2.5^8.2^5]pentadec-3-en-2-one] | 80% | 80% | 90% | 100% |  | 100% | 100% | 80% | 80% | 90% |  |  |  |  |  | 
3 | COc1cc(C)cc(C)c1C1=C([O-])C2(COC3(CCOCC3)OC2)NC1=O.[Na+] [Example 2-1] | 90% | 90% | 90% | 100% | 90% | 100% | 100% | 100% | 90% | 90% |  |  |  |  |  | 
4 | COc1cc(Cl)cc(C)c1C1=C(O)C2(COC3(CCOCC3)OC2)NC1=O [Example 2-4, sodium 3-(4-chloro-2-methoxy-6-methylphenyl)-2-oxo-7,11,14-trioxa-1-azadispiro[4.2.5^8.2^5]pentadec-3-en-4-olate] | 90% | 90% | 80% | 100% |  | 100% | 90% | 80% | 80% | 80% |  |  |  |  |  | 
5 | CCC(=O)OC1=C(c2c(C)cc(C)cc2OC)C(=O)NC12COC1(CCOCC1)OC2 [Example 3-1] | 90% | 100% | 90% | 100% | 90% | 90% | 100% | 100% | 80% | 90% |  |  |  |  |  | 
6 | CCC(=O)OC1=C(c2c(C)cc(Cl)cc2OC)C(=O)NC12COC1(CCOCC1)OC2 [Example 3-4, 3-(4-chloro-2-methoxy-6-methylphenyl)-2-oxo-7,11,14-trioxa-1-azadispiro[4.2.5^8.2^5]pentadec-3-en-4-yl propionate] | 100% | 100% | 90% | 100% |  | 100% | 100% | 100% | 80% | 90% |  |  |  |  |  | 
7 | CCOC(=O)OC1=C(c2c(C)cc(C)cc2OC)C(=O)NC12COC1(CCOCC1)OC2 [Example 4-1] | 90% | 90% | 100% | 100% | 100% | 100% | 100% | 100% | 90% | 100% |  |  |  |  |  | 
8 | CCOC(=O)OC1=C(c2c(C)cc(Cl)cc2OC)C(=O)NC12COC1(CCOCC1)OC2 [Example 4-4, 3-(4-chloro-2-methoxy-6-methylphenyl)-2-oxo-7,11,14-trioxa-1-azadispiro[4.2.5^8.2^5]pentadec-3-en-4-yl ethyl carbonate] | 90% | 90% | 90% | 100% |  | 80% | 90% | 100% | 80% | 90% |  |  |  |  |  | 
9 | COc1cc(C)cc(C)c1C1=C(O)C2(COC3(CCOCC3)OC2)N(C)C1=O [Example 5-1] |  |  | 80% | 90% |  |  | 90% | 100% | 90% | 90% | 90% | 100% | 100% | 100% | 100% | 100%
10 | COc1cc(C)cc(C)c1C1=C([O-])C2(COC3(CCOCC3)OC2)N(C)C1=O.[Na+] [Example 6-1] |  |  |  | 90% |  |  | 90% | 100% | 90% | 90% | 100% | 100% | 100% | 100% | 90% | 90%
11 | CCOC(=O)OC1=C(c2c(C)cc(C)cc2OC)C(=O)N(C)C12COC1(CCOCC1)OC2 [Example 8-1] |  |  |  |  |  |  | 90% | 90% | 80% | 100% | 100% | 100% | 100% | 100% | 80% | 100%

From patent US20230180758A1, “SUBSTITUTED PYRROLINE-2-ONES AND THEIR USE AS HERBICIDES” (Bayer Aktiengesellschaft, priority 2020, published 2023)
